Results taken from PMC12376128, “In vitro and In Vivo Drug Metabolism Analysis of BPI-460372 - A Covalent TEAD1/3/4 Inhibitor” (Current Drug Metabolism, 2025).
Where two headings read alike, the source gives them in different places.

Legend:
[1] = tested on: monkey hepatocytes; experiment: Metabolism and metabolite formation in hepatocytes; format: in vitro ADME, cynomolgus monkey;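 on Area Ratio T4 h: peak area of analyte divided by internal standard peak area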
Text: (§1) All the samples were duplicates.

[2] = tested on: dog hepatocytes; experiment: Metabolism and metabolite formation in hepatocytes; format: in vitro ADME, beagle dog;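 on Area Ratio T0 h: peak area of analyte divided by internal standard peak area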;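 on Area Ratio T4 h: peak area of analyte divided by internal standard peak area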
Text: as §1

[3] = tested on: rat hepatocytes; experiment: Metabolism and metabolite formation in hepatocytes; format: in vitro ADME, SD rat;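 on Area Ratio T0 h: peak area of analyte divided by internal standard peak area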
Text: as §1

[4] = tested on: mouse hepatocytes; experiment: Metabolism and metabolite formation in hepatocytes; format: in vitro ADME, ICR mouse;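 on Area Ratio T0 h: peak area of analyte divided by internal standard peak area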;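 on Area Ratio T4 h: peak area of analyte divided by internal standard peak area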
Text: as §1

[5] = tested on: human hepatocytes; conditions: 0 h
[6] = tested on: human hepatocytes; experiment: Metabolism and metabolite formation in hepatocytes
[7] = set-up: method as in PMID 32250617; conditions: mouse whole blood, compared with compound 18 (acrylamide warhead); cited from earlier work
[8] = set-up: method as in PMID 32250617; conditions: dog whole blood, compared with compound 18 (acrylamide warhead); cited from earlier work
[9] = set-up: method as in PMID 32250617; conditions: human whole blood, compared with compound 18 (acrylamide warhead); cited from earlier work
[10] = Metabolite identification in rat plasma, urine, feces and bile; format: in vivo, SD rats
Experimental: (§2) The plasma samples were acquired from SD rats (n=6, 3 female and 3 male) and beagle dogs (n=6, 3 female and 3 male) after administration of 12 mg/kg and 8 mg/kg of BPI-460372, respectively. The rat urine, feces, and bile samples were acquired in SD rats after administration of 6 mg/kg of BPI-460372.
(§3) Equal volume from each rat was pooled together to get 1 male and 1 female 0-24 h plasma samples. An equal percentage by volume of individual urine sample (0-8, 8-24, and 24-48 h) from 3 female and 3 male rats was pooled by time interval across rats, respectively, resulting in two pooled urine samples (1 male and 1 female). An equal percentage by weight of individual feces samples (0-8, 8-24, and 24-48 h) was pooled by time interval across female and male rats, resulting in two pooled fecal samples. An equal percentage by volume of individual bile samples (0-4, 4-8, 8-24, and 24-48 h) was pooled by time interval across female and male rats, resulting in two pooled bile samples. […] Equal volumes from 3 female and 3 male rats were pooled together to get two 0-48 h plasma samples. For blank samples of plasma, urine, and bile, equal volume was pooled across subjects. For a blank sample of feces, equal weight was pooled across rats.
(§4) The pooled plasma, feces, and bile samples were extracted by adding 3-fold volume of acetonitrile, and the mixture was vortexed (1 min) and sonicated (1 min) before centrifugation (7220 g, 5 min). The pooled urine samples were centrifuged (7220 g, 5 min). Then the supernatant was transferred into a clean tube and evaporated to dryness under the nitrogen stream. The residues were redissolved with an appropriate volume of acetonitrile/water (20: 80, v: v). After centrifugation, the redissolved solution was transferred into an HPLC vial for UHPLC-Orbitrap-HRMS (15000 g, 10 min, 4°C).

[11] = Metabolite identification in dog plasma; format: in vivo, beagle dogs; conditions: oral 8 mg/kg BPI-460372, average of male and female pooled samples
Experimental: as §2, §3, §4

[12] = tested on: TEAD proteins; experiment: Covalent binding to TEAD proteins (in vitro); conditions: in vitro studies
[13] = tested on: TEAD palmitoylation; experiment: Inhibition of TEAD palmitoylation (in vitro); format: biochemical; conditions: in vitro studies
[14] = Formation of M335 in HLMs with and without NADPH; format: in vitro ADME, human; conditions: 45 minutes of incubation of BPI-460372 with HLMs
[15] = tested on: cysteine S-conjugate β-lyase; experiment: Effect of cysteine S-conjugate β-lyase inhibitor AOAA on the metabolism of BPI-460372 (rat urine); conditions: 20 mg/kg BPI-460372 + 100 mg/kg AOAA, once daily 21 days, urine 0-48 h on day 21
Experimental: To investigate the effect of cysteine S-conjugate β-lyase on the metabolism of BPI-460372, SD rats were treated with 20 mg/kg BPI-460372 alone (n=3, male) or 20 mg/kg BPI-460372 coadministration with 100 mg/kg cysteine S-conjugate β-lyase inhibitor AOAA (n=3, male), once daily for 21 consecutive days. On day 21, urine samples were collected at 0-8, 8-24 and 24-48 h. The same percentage of urine samples from each rat was taken at these three time intervals and mixed. The samples were analyzed by LC-MS/MS and then semi-quantified using the peak area ratio of analyte versus IS.

[16] = tested on: CYPs and GSTs; set-up: method as in earlier work; conditions: multiple CYPs and GSTs pathways; cited from earlier work
[17] = oral 6 mg/kg BPI-460372, average of male and female pooled samples

In the case of `CCOc1ccc2ccc(=O)oc2c1` [7-EC, 7-ethoxycoumarin, reference compound], the “Area Ratio T0 h” value ([1]; monkey hepatocytes, 7-EC incubation, 0 h) is reported as 2.65E+07, the “Area Ratio T4 h” value ([1]; monkey hepatocytes, 7-EC incubation, 4 h) is reported as 9.51E+04 and the “Proportion of 7-EC remaining in hepatocytes after 4 h incubation” value (“Proportion of 7-EC remaining” below) ([1]; monkey, hepatocytes) is reported as 0.36%. For the same compound, the “Area Ratio T0 h” value ([2]; dog hepatocytes, 7-EC incubation, 0 h) was 2.18E+07, the “Area Ratio T4 h” value ([2]; dog hepatocytes, 7-EC incubation, 4 h) was 1.01E+05 and the “Proportion of 7-EC remaining” value ([2]; dog, hepatocytes) was 0.46%. For the same compound, the “Area Ratio T0 h” value ([3]; rat hepatocytes, 7-EC incubation, 0 h) was 2.64E+07, the “Area Ratio T4 h” value ([3]; rat hepatocytes, 7-EC incubation, 4 h) was 6.62E+06 and the “Proportion of 7-EC remaining” value ([3]; rat, hepatocytes) was 25.08%. For the same compound, the “Area Ratio T0 h” value ([4]; mouse hepatocytes, 7-EC incubation, 0 h) was 2.39E+07, the “Area Ratio T4 h” value ([4]; mouse hepatocytes, 7-EC incubation, 4 h) was 1.46E+05 and the “Proportion of 7-EC remaining” value ([4]; mouse, hepatocytes) was 0.61%. The “Area Ratio T0 h” value [5] was 3.36E+07, the “Area Ratio T4 h” value ([6]; human hepatocytes, 7-EC incubation, 4 h) was 7.50E+06 and the “Proportion of 7-EC remaining” value ([6]; human, hepatocytes) was 22.32%.
For `C=C(F)C(=O)N1CCN(c2nc(OC[C@@H]3CCCN3C)nc3c2CCN(c2cccc4cccc(Cl)c24)C3)C[C@@H]1CC#N` [Adagrasib], the “Stability in whole blood” value [7] is listed as “higher stability”, the “Stability in whole blood” value [8] is listed as “higher stability” and the “Stability in whole blood” value [9] is listed as “higher stability”.
In the case of `O=c1n(-c2ccc(C(F)(F)F)cc2)c2nccnc2n1C1CNC1` [M335 (BPI-460608)], the “UV (314 nm) Peak Areas Relative Abundance” value ([1]; cynomolgus monkey hepatocytes, 10 µM BPI-460372, 4 h incubation) is reported as 16.99%, the “UV (314 nm) Peak Areas Relative Abundance” value ([2]; beagle dog hepatocytes, 10 µM BPI-460372, 4 h incubation) is reported as 18.82% and the “UV (314 nm) Peak Areas Relative Abundance” value ([3]; SD rat hepatocytes, 10 µM BPI-460372, 4 h incubation) is reported as 3.9%. For the same compound, the “UV (314 nm) Peak Areas Relative Abundance” value ([4]; ICR mouse hepatocytes, 10 µM BPI-460372, 4 h incubation) was 26.4%, the “Relative abundance of MS peak areas, Rat Bile 0-48 h” value [10, 17] was 0.070% and the “Relative abundance of MS peak areas, Rat Feces 0-48 h” value [10, 17] was 4.83%. For the same compound, the “Relative abundance of MS peak areas, Rat Urine 0-48 h” value [10, 17] was 13.23%, the “Relative abundance of MS peak areas, Rat Plasma 0-24 h” value ([10]; oral 12 mg/kg BPI-460372, average of male and female pooled samples) was 2.48% and the “Relative abundance of MS peak areas, Dog Plasma 0-48 h” value [11] was 8.45%. The “Covalent binding to TEAD proteins” value [12] was “do not covalently bind”, the “Activity: inhibition of TEAD palmitoylation” value [13] was “inactive” and the “Formation of M335 without NADPH versus HLMs+NADPH group” value [14] was “comparable”. For the same compound, the “UV (314 nm) Peak Areas Relative Abundance” value ([6]; human hepatocytes, 10 µM BPI-460372, 4 h incubation) was 11.47% and the “Area ratio in rat urine, mean (%CV)” value [15] was 1.41 (48).
In the case of `C=CC(=O)N1C[C@H](Nc2ncnc3[nH]ccc23)CC[C@@H]1C` [Ritlecitinib], the “Contribution of any single route to the total metabolism” value [16] is listed as ≤ 25%.
